Assay results from US8562949B2, “Radiolabeled dihydrotetrabenazine derivatives and their use as imaging agents” (The Trustees of the University of Pennsylvania, priority 2006, dated 2013).

Assays:
VMAT2 [1] = target: T1, VMAT2 (Mus musculus, UniProt Q8BRU6); experiment: Saturation binding of 18F ligands in mouse striatal homogenates; design: The basal forebrain regions of rat and mouse brains were then dissected; from tissue; host or cells: mouse striatal homogenate; mouse brain coronal sections; details: estimated based on S.A.=2000 Ci/mmole
T1 sequence (Q8BRU6 whole entry): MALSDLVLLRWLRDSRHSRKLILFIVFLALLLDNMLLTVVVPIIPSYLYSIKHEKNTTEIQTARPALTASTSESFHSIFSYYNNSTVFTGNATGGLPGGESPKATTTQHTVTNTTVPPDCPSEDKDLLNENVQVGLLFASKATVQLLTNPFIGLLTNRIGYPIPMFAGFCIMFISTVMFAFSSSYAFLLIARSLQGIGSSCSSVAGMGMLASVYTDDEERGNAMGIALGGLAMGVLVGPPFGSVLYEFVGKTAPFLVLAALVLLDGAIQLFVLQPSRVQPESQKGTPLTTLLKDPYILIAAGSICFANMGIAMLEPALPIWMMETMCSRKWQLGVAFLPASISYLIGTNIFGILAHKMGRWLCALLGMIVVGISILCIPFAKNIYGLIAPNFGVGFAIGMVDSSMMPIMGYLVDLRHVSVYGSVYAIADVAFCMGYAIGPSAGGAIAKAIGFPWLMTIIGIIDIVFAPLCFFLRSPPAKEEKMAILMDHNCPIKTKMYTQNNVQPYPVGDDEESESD
Method: The basal forebrain regions of rat and mouse brains were then dissected. The tissue homogenates were prepared in 50 mM Hepes, pH 7.5 and 0.3 M sucrose. The specific binding of ^3H or ^18F ligands were determined following the procedures described (Scherman D, Raisman R, Ploska A, Agid Y., [^3H]Dihydrotetrabenazine, a new in vitro monoaminergic probe for human brain, J. Neurochem., 1988:50:1131-36). Total volume of reaction for the assay was 0.2 ml. […] In saturation experiments, increasing concentrations of labeled ligand […] in 50 μl buffer were incubated with 100 μl of homogenates (100-250 μg). Incubation was carried out routinely at room temperature for 90 min. The samples were then filtered through glass fiber filters No. 25 (Schleicher and Schuell, Keene, N.H.) and the bound radioactivity was determined for ^18F in a gamma counter (Packard 5000) with 70% efficiency. Filters containing bound ^3H ligand were dissolved in 7 ml Ecolite(+) overnight and the radioactivity was counted next day in the scintillation counter (Beckman) with 65% counting efficiency. […] Nonspecific binding was determined in the presence of 10 μM tetrabenazine. Both saturation and competition experiments were analyzed using the nonlinear least-square curve fitting program LIGAND. […]

VMAT2 [2] = target: T1, VMAT2; experiment: Blocking study in normal mice, co-injection of DTBZ or raclopride; assay type: in vivo; design: from tissue; host or cells: living ICR mice and lesioned mice; brain regions dissected after iv injection; details: 30 min after iv
Method: While under isoflurane anesthesia, 0.15 mL of a 0.1% bovine serum albumin solution containing [^18F]tracers (10-20 μCi) were injected directly into the tail vein of ICR mice (22-25 g, male) The mice (n=3 for each time point) were sacrificed by cervical dislocation at indicated time points post injection. The organs of interest were removed and weighed, and the radioactivity was counted with an automatic gamma counter. The percentage dose per organ was calculated by a comparison of the tissue counts to suitably diluted aliquots of the injected material. Total activities of blood were calculated under the assumption that they were 7% of the total body weight. The % dose/g of samples was calculated by comparing the sample counts with the count of the diluted initial dose. Different regions corresponding to striatum (ST), hippocampus (HP), cerebellum (CB), and cortex (CX) were dissected out from the brain.
Blocking studies were carried out by co-injection (iv) of the ^18F tracer with (±)DTBZ (3 mg/kg) or raclopride (1.2 mg/kg) into the animals. Thirty minutes after the injection, the animals were sacrificed and the brain regions including ST, HP, CB and CX were dissected out and the % dose/g were calculated. The ratios of target (ST) vs nontarget (CB) were compared between control and blocked groups.

[3] = Partition coefficient 1-octanol/phosphate buffer; assay type: physicochemical; details: pH 7.4, 1-octanol and phosphate buffer
Method: Partition coefficients were measured by mixing the [^18F]tracer with 3 g each of 1-octanol and buffer (0.1 M phosphate, pH 7.4) in a test tube. The test tube was vortexed for 3 min at room temperature, followed by centrifugation for 5 min. Two weighed samples (0.5 g each) from the 1-octanol and buffer layers were counted in a well counter. The partition coefficient was determined by calculating the ratio of cpm/g of 1-octanol to that of buffer. Samples from the 1-octanol layer were re-partitioned until consistent partitions of coefficient values were obtained. Values are the mean±SEM of three independent experiments, each in duplicates.

[4] = Metabolic stability in mouse brain; assay type: in vivo, mice; details: mouse striatum, 30 minutes post-injection, ethyl acetate extraction/TLC
Method: Two mice were injected with 200 μCi [^18F]FP-(+)-DTBZ and sacrificed at 30 minutes post-injection. The brains were removed and the striatal regions were dissected out. The striatal homogenates (prepared in PBS, 10% w/v) were extracted with 0.5 mL of ethyl acetate in the presence of a small amount of carrier (10 μg of […]). Extraction was repeated three times and the ethyl acetate layers and the buffer layers were counted separately to determine the percent extracted. […] A control sample ([^18F]FP-(±)-DTBZ mixed with normal mouse striatal homogenates in situ) was carried out in parallel for comparison.

In the case of `COc1cc2c(cc1OCCC[18F])CCN1CC(CC(C)C)C(O)CC21` (racemic) [[^18F]6b], the Kd (VMAT2 [1]) is reported as 480 pM, the “Organ distribution Blood” value (VMAT2 [2]; Control) is reported as 1.41 ± 0.20 % dose/g and the “Organ distribution Bone” value (VMAT2 [2]; Control) is reported as 6.06 ± 1.11 % dose/g. The “Organ distribution Brain” value (VMAT2 [2]; Control) was 1.40 ± 0.12 % dose/g, the “Organ distribution Heart” value (VMAT2 [2]; Control) was 2.05 ± 0.13 % dose/g and the “Organ distribution Kidney” value (VMAT2 [2]; Control) was 5.90 ± 0.42 % dose/g. The “Organ distribution Liver” value (VMAT2 [2]; Control) was 13.9 ± 1.15 % dose/g, the “Organ distribution Lung” value (VMAT2 [2]; Control) was 2.78 ± 0.20 % dose/g and the “Organ distribution Muscle” value (VMAT2 [2]; Control) was 1.06 ± 0.06 % dose/g. For the same compound, the “Organ distribution Skin” value (VMAT2 [2]; Control) was 1.48 ± 0.09 % dose/g, the “Organ distribution Spleen” value (VMAT2 [2]; Control) was 2.90 ± 0.14 % dose/g and the “Ratio (vs CB) Cortex” value (VMAT2 [2]; Control) was 1.15. The “Ratio (vs CB) Hippocampus” value (VMAT2 [2]; Control) was 1.36, the “Ratio (vs CB) Hypothalamus” value (VMAT2 [2]; Control) was 2.54 and the “Ratio (vs CB) Striatum” value (VMAT2 [2]; Control) was 3.40. For the same compound, the “Regional brain distribution Cerebellum (CB)” value (VMAT2 [2]; Control) was 1.05 ± 0.09 % dose/g, the “Regional brain distribution Cortex” value (VMAT2 [2]; Control) was 1.21 ± 0.15 % dose/g and the “Regional brain distribution Hippocampus” value (VMAT2 [2]; Control) was 1.43 ± 0.12 % dose/g. For the same compound, the “Regional brain distribution Hypothalamus” value (VMAT2 [2]; Control) was 2.67 ± 0.30 % dose/g, the “Regional brain distribution Striatum” value (VMAT2 [2]; Control) was 3.57 ± 0.30 % dose/g and the “Organ distribution Blood” value (VMAT2 [2]; with 1.2 mg/kg raclopride) was 1.60 ± 0.08 % dose/g. For the same compound, the “Organ distribution Bone” value (VMAT2 [2]; with 1.2 mg/kg raclopride) was 6.03 ± 1.07 % dose/g, the “Organ distribution Brain” value (VMAT2 [2]; with 1.2 mg/kg raclopride) was 1.64 ± 0.16 % dose/g and the “Organ distribution Heart” value (VMAT2 [2]; with 1.2 mg/kg raclopride) was 2.29 ± 0.06 % dose/g. The “Organ distribution Kidney” value (VMAT2 [2]; with 1.2 mg/kg raclopride) was 6.01 ± 0.50 % dose/g, the “Organ distribution Liver” value (VMAT2 [2]; with 1.2 mg/kg raclopride) was 14.6 ± 0.44 % dose/g and the “Organ distribution Lung” value (VMAT2 [2]; with 1.2 mg/kg raclopride) was 3.34 ± 0.24 % dose/g. For the same compound, the “Organ distribution Muscle” value (VMAT2 [2]; with 1.2 mg/kg raclopride) was 1.15 ± 0.03 % dose/g, the “Organ distribution Skin” value (VMAT2 [2]; with 1.2 mg/kg raclopride) was 1.58 ± 0.09 % dose/g and the “Organ distribution Spleen” value (VMAT2 [2]; with 1.2 mg/kg raclopride) was 3.25 ± 0.20 % dose/g. The “Ratio (vs CB) Cortex” value (VMAT2 [2]; with 1.2 mg/kg raclopride) was 1.18, the “Ratio (vs CB) Hippocampus” value (VMAT2 [2]; with 1.2 mg/kg raclopride) was 1.59 and the “Ratio (vs CB) Hypothalamus” value (VMAT2 [2]; with 1.2 mg/kg raclopride) was 2.12. For the same compound, the “Ratio (vs CB) Striatum” value (VMAT2 [2]; with 1.2 mg/kg raclopride) was 3.93, the “Regional brain distribution Cerebellum (CB)” value (VMAT2 [2]; with 1.2 mg/kg raclopride) was 1.19 ± 0.11 % dose/g and the “Regional brain distribution Cortex” value (VMAT2 [2]; with 1.2 mg/kg raclopride) was 1.41 ± 0.15 % dose/g. For the same compound, the “Regional brain distribution Hippocampus” value (VMAT2 [2]; with 1.2 mg/kg raclopride) was 1.89 ± 0.85 % dose/g, the “Regional brain distribution Hypothalamus” value (VMAT2 [2]; with 1.2 mg/kg raclopride) was 2.52 ± 0.77 % dose/g and the “Regional brain distribution Striatum” value (VMAT2 [2]; with 1.2 mg/kg raclopride) was 4.67 ± 1.29 % dose/g. For the same compound, the “Organ distribution Blood” value (VMAT2 [2]; with 3 mg/kg (+)DTBZ) was 1.67 ± 0.04 % dose/g, the “Organ distribution Bone” value (VMAT2 [2]; with 3 mg/kg (+)DTBZ) was 6.54 ± 0.84 % dose/g and the “Organ distribution Brain” value (VMAT2 [2]; with 3 mg/kg (+)DTBZ) was 0.86 ± 0.04 % dose/g. For the same compound, the “Organ distribution Heart” value (VMAT2 [2]; with 3 mg/kg (+)DTBZ) was 2.36 ± 0.07 % dose/g, the “Organ distribution Kidney” value (VMAT2 [2]; with 3 mg/kg (+)DTBZ) was 4.94 ± 3.38 % dose/g and the “Organ distribution Liver” value (VMAT2 [2]; with 3 mg/kg (+)DTBZ) was 14.0 ± 0.56 % dose/g. For the same compound, the “Organ distribution Lung” value (VMAT2 [2]; with 3 mg/kg (+)DTBZ) was 3.27 ± 0.17 % dose/g, the “Organ distribution Muscle” value (VMAT2 [2]; with 3 mg/kg (+)DTBZ) was 1.28 ± 0.07 % dose/g and the “Organ distribution Skin” value (VMAT2 [2]; with 3 mg/kg (+)DTBZ) was 1.67 ± 0.02 % dose/g. For the same compound, the “Organ distribution Spleen” value (VMAT2 [2]; with 3 mg/kg (+)DTBZ) was 2.67 ± 0.17 % dose/g, the “Ratio (vs CB) Cortex” value (VMAT2 [2]; with 3 mg/kg (+)DTBZ) was 1.03 and the “Ratio (vs CB) Hippocampus” value (VMAT2 [2]; with 3 mg/kg (+)DTBZ) was 0.94. For the same compound, the “Ratio (vs CB) Hypothalamus” value (VMAT2 [2]; with 3 mg/kg (+)DTBZ) was 1.04, the “Ratio (vs CB) Striatum” value (VMAT2 [2]; with 3 mg/kg (+)DTBZ) was 0.98 and the “Regional brain distribution Cerebellum (CB)” value (VMAT2 [2]; with 3 mg/kg (+)DTBZ) was 0.89 ± 0.16 % dose/g. The “Regional brain distribution Cortex” value (VMAT2 [2]; with 3 mg/kg (+)DTBZ) was 0.91 ± 0.13 % dose/g, the “Regional brain distribution Hippocampus” value (VMAT2 [2]; with 3 mg/kg (+)DTBZ) was 0.83 ± 0.27 % dose/g and the “Regional brain distribution Hypothalamus” value (VMAT2 [2]; with 3 mg/kg (+)DTBZ) was 0.92 ± 0.23 % dose/g. For the same compound, the “Regional brain distribution Striatum” value (VMAT2 [2]; with 3 mg/kg (+)DTBZ) was 0.87 ± 0.18 % dose/g and the logD at 3 min [3] was 2.61.
In the case of `COc1cc2c(cc1OCCC[18F])CCN1C[C@@H](CC(C)C)[C@H](O)C[C@H]21` [[^18F]-(+)-6b], the degradation [4] is reported as “less than 5%”.
